Key:
[1] = system: JVM-3 (B-Cell Non-Hodgkin's Lymphoma); assay: combination Emax (second highest fraction inhibited in the dose matrix, 72 h); higher = more inhibition; extreme values may be limits of the assay
How it was run: (§1)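 After 24 hours at 37°C and 5% CO2 in 1536-well plates, cells in DMEM/F12 or RPMI plus 10% FBS received two-drug dose matrices for 72 hours. Viability came from CellTiter-Glo 2.0 luminescence and was scaled as inhibition, anchored at 0 by vehicle wells and at 1 by blank wells. Combination Emax is taken as the second-highest inhibition in the matrix, and Bliss excess as the observed combination effect less EA + EB − EA·EB, with EA and EB the single-agent effects.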

[2] = system: JVM-3 (B-Cell Non-Hodgkin's Lymphoma); assay: Bliss excess, mean over the matrix (fraction); higher = more synergy
How it was run: as §1

UACC-62 (Melanoma) = assay: as above
How it was run: as §1

TGW (Neuroblastoma) = assay: as above
How it was run: as §1
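Throughout, for Bliss excess, mean over the matrix: after 72 h of two-drug dosing.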

SMILES | combination Emax [1] | Bliss excess [2] | Bliss excess (UACC-62 (Melanoma)) | Bliss excess (TGW (Neuroblastoma))
CN(C)CCCOc1ccc(-c2ccc3ncc4c(c3c2)n(C2CCOCC2)c(=O)n4C)cn1 [AZD0156] + O=C(c1cc(Cc2n[nH]c(=O)c3ccccc23)ccc1F)N1CCN(C(=O)C2CC2)CC1 [Olaparib] (first compound max 3 µM, partner max 3 µM) | 0.684 | 0.234 | -0.028 | 0.106
CN(C)CCCOc1ccc(-c2ccc3ncc4c(c3c2)n(C2CCOCC2)c(=O)n4C)cn1 [AZD0156] + CCN(CCO)CCCOc1ccc2c(Nc3cc(CC(=O)Nc4cccc(F)c4)[nH]n3)ncnc2c1 [AZD2811] (first compound max 1 µM, 7x7, partner max 1 µM) | 0.543 | -0.0252 | -0.0467 | -0.0141
C=CCn1c(=O)c2cnc(Nc3ccc(N4CCN(C)CC4)cc3)nc2n1-c1cccc(C(C)(C)O)n1 [AZD1775] + C1CN(CCC1(C(=O)N[C@@H](CCO)C2=CC=C(C=C2)Cl)N)C3=NC=NC4=C3C=CN4 [Capivasertib] (first compound max 3 µM, partner max 3 µM) | 0.971 | 0.0012 | 0.0375 | -0.0542
CCc1c2c(nc3ccc(O)cc13)-c1cc3c(c(=O)n1C2)COC(=O)[C@]3(O)CC [SN-38] + CN(C)CCCOc1ccc(-c2ccc3ncc4c(c3c2)n(C2CCOCC2)c(=O)n4C)cn1 [AZD0156] (first compound max 0.3 µM, 7x7, partner max 1 µM) | 0.982 | -0.0309 | 0.0077 | 0.0047
CCN(CCO)CCCOc1ccc2c(Nc3cc(CC(=O)Nc4cccc(F)c4)[nH]n3)ncnc2c1 [AZD2811] + C=CCn1c(=O)c2cnc(Nc3ccc(N4CCN(C)CC4)cc3)nc2n1-c1cccc(C(C)(C)O)n1 [AZD1775] (first compound max 1 µM, partner max 1 µM) | 0.775 | 0.0365 | -0.029 | -0.0083
CN(C)CCCOc1ccc(-c2ccc3ncc4c(c3c2)n(C2CCOCC2)c(=O)n4C)cn1 [AZD0156] + C=CCn1c(=O)c2cnc(Nc3ccc(N4CCN(C)CC4)cc3)nc2n1-c1cccc(C(C)(C)O)n1 [AZD1775] (first compound max 1 µM, partner max 1 µM) | 0.895 | -0.0347 | 0.0087 | -0.0051
CC1(C)CCC(CN2CCN(c3ccc(C(=O)NS(=O)(=O)c4ccc(NCC5CCOCC5)c([N+](=O)[O-])c4)c(Oc4cnc5[nH]ccc5c4)c3)CC2)=C(c2ccc(Cl)cc2)C1 [Venetoclax] + CCN(CCO)CCCOc1ccc2c(Nc3cc(CC(=O)Nc4cccc(F)c4)[nH]n3)ncnc2c1 [AZD2811] (first compound max 1 µM, 7x7, partner max 1 µM) | 0.653 | 0.162 | -0.0027 | -0.011
C[C@@H]1COCCN1c1cc(C2([S@](C)(=N)=O)CC2)nc(-c2ccnc3[nH]ccc23)n1 [AZD6738] + O=C(c1cc(Cc2n[nH]c(=O)c3ccccc23)ccc1F)N1CCN(C(=O)C2CC2)CC1 [Olaparib] (first compound max 10 µM, 7x7, partner max 10 µM) | 0.704 | -0.0937 | 0.0235 | -0.0469
COc1cccc2c1C(=O)c1c(O)c3c(c(O)c1C2=O)C[C@@](O)(C(=O)CO)C[C@@H]3O[C@H]1C[C@H](N)[C@H](O)[C@H](C)O1 [Doxorubicin] + Cc1cc2ncnn2cc1Nc1ncc2c(n1)n(C1CCOCC1)c(=O)n2C [AZD7648] (first compound max 1 µM, 7x7, partner max 10 µM) | 0.978 | 0.0661 | 0.0306 | 0.0041
CN(CCO)CC[C@H](CSc1ccccc1)Nc1ccc(S(=O)(=O)NC(=O)c2ccc(N3CCC([C@@H](O)c4ccccc4-c4ccc(Cl)cc4)CC3)cc2)cc1S(=O)(=O)C(F)(F)F [AZD4320] + CN(C)CCCOc1ccc(-c2ccc3ncc4c(c3c2)n(C2CCOCC2)c(=O)n4C)cn1 [AZD0156] (first compound max 1 µM, 7x7, partner max 1 µM) | 0.92 | 0.0006 | -0.0368 | -0.0068
CCc1c2c(nc3ccc(O)cc13)-c1cc3c(c(=O)n1C2)COC(=O)[C@]3(O)CC [SN-38] + O=C(c1cc(Cc2n[nH]c(=O)c3ccccc23)ccc1F)N1CCN(C(=O)C2CC2)CC1 [Olaparib] (first compound max 0.3 µM, 7x7, partner max 10 µM) | 0.998 | 0.0365 | 0.0203 | 0.06
COc1cccc(OCCCN)c1-c1cc(Nc2cnc(C#N)cn2)n[nH]1 [Prexasertib] + CCc1c2c(nc3ccc(O)cc13)-c1cc3c(c(=O)n1C2)COC(=O)[C@]3(O)CC [SN-38] (first compound max 1 µM, 7x7, partner max 0.3 µM) | 0.994 | -0.0363 | -0.042 | -0.0284
Cc1c2c(nn1C)CSCc1cc(n(C)n1)CSc1cc(c3ccccc3c1)OCCCc1c(C(=O)O)n(C)c3c-2c(Cl)ccc13 [AZD5991] + C1CN(CCC1(C(=O)N[C@@H](CCO)C2=CC=C(C=C2)Cl)N)C3=NC=NC4=C3C=CN4 [Capivasertib] (first compound max 1 µM, 7x7, partner max 3 µM) | 0.544 | -0.0363 | 0.0121 | 0.0078
CC1(C)CCC(CN2CCN(c3ccc(C(=O)NS(=O)(=O)c4ccc(NCC5CCOCC5)c([N+](=O)[O-])c4)c(Oc4cnc5[nH]ccc5c4)c3)CC2)=C(c2ccc(Cl)cc2)C1 [Venetoclax] + C=CCn1c(=O)c2cnc(Nc3ccc(N4CCN(C)CC4)cc3)nc2n1-c1cccc(C(C)(C)O)n1 [AZD1775] (first compound max 1 µM, partner max 1 µM) | 0.953 | -0.0521 | 0.0405 | -0.0261
COc1nnc2ccc(N3CCC(c4ccc(OCCN5CCN(C)C(=O)[C@H]5C)cc4)CC3)nn12 [AZD5153] + C[C@@H]1COCCN1C2=NC(=NC(=C2)C3(CC3)[S@](=N)(=O)C)C4=C5C=CNC5=NC=C4 [AZD6738] (first compound max 1 µM, 7x7, partner max 10 µM) | – | – | 0.0179 | -0.0601
COc1nnc2ccc(N3CCC(c4ccc(OCCN5CCN(C)C(=O)[C@H]5C)cc4)CC3)nn12 [AZD5153] + Cc1c2c(nn1C)CSCc1cc(n(C)n1)CSc1cc(c3ccccc3c1)OCCCc1c(C(=O)O)n(C)c3c-2c(Cl)ccc13 [AZD5991] (first compound max 1 µM, 7x7, partner max 1 µM) | – | – | 0.0084 | -0.0523
C[C@@H]1COCCN1c1cc(C2([S@](C)(=N)=O)CC2)nc(-c2ccnc3[nH]ccc23)n1 [AZD6738] + Nc1ccn([C@@H]2O[C@H](CO)[C@@H](O)C2(F)F)c(=O)n1 [Gemcitabine] (first compound max 10 µM, 7x7, partner max 0.3 µM) | – | – | 0.0114 | 0.0013
COc1nnc2ccc(N3CCC(c4ccc(OCCN5CCN(C)C(=O)[C@H]5C)cc4)CC3)nn12 [AZD5153] + CC1(C)CCC(CN2CCN(c3ccc(C(=O)NS(=O)(=O)c4ccc(NCC5CCOCC5)c([N+](=O)[O-])c4)c(Oc4cnc5[nH]ccc5c4)c3)CC2)=C(c2ccc(Cl)cc2)C1 [Venetoclax] (first compound max 1 µM, 7x7, partner max 1 µM) | – | – | -0.0271 | 0.0081
Cn1cnc2c(F)c(Nc3ccc(Br)cc3Cl)c(C(=O)NOCCO)cc21 [Selumetinib] + C=CCn1c(=O)c2cnc(Nc3ccc(N4CCN(C)CC4)cc3)nc2n1-c1cccc(C(C)(C)O)n1 [AZD1775] (first compound max 10 µM, partner max 1 µM) | – | – | -0.0006 | -0.0219
NC1(C(=O)N[C@@H](CCO)c2ccc(Cl)cc2)CCN(c2ncnc3[nH]ccc23)CC1 [Capivasertib] + C[C@@H]1COCCN1C2=NC(=NC(=C2)C3(CC3)[S@](=N)(=O)C)C4=C5C=CNC5=NC=C4 [AZD6738] (first compound max 10 µM, 7x7, partner max 10 µM) | – | – | 0.0231 | -0.112
C[C@@H](Nc1cc(F)cc(F)c1)c1cc(C(=O)N(C)C)cc2c(=O)cc(N3CCOCC3)oc12 [AZD8186] + C1CN(CCC1(C(=O)N[C@@H](CCO)C2=CC=C(C=C2)Cl)N)C3=NC=NC4=C3C=CN4 [AZD5363] (first compound max 10 µM, 7x7, partner max 10 µM) | – | – | -0.0382 | -0.0683
Cn1cnc2c(F)c(Nc3ccc(Br)cc3Cl)c(C(=O)NOCCO)cc21 [Selumetinib] + CC(C)n1c(=O)n(C)c2cnc3cc(F)c(-c4ccc(OCCCN5CCCCC5)nc4)cc3c21 [AZD1390] (first compound max 10 µM, 7x7, partner max 0.3 µM) | – | – | -0.0092 | -0.0393
C[C@@H]1COCCN1c1cc(C2([S@](C)(=N)=O)CC2)nc(-c2ccnc3[nH]ccc23)n1 [AZD6738] + C1CC(C1)(C(=O)[O-])C(=O)[O-].N.N.[Pt+2] [Carboplatin] (first compound max 10 µM, 7x7, partner max 10 µM) | – | – | -0.0289 | -0.0765
COc1nnc2ccc(N3CCC(c4ccc(OCCN5CCN(C)C(=O)[C@H]5C)cc4)CC3)nn12 [AZD5153] + CCN(CCO)CCCOc1ccc2c(Nc3cc(CC(=O)Nc4cccc(F)c4)[nH]n3)ncnc2c1 [AZD2811] (first compound max 1 µM, 7x7, partner max 1 µM) | – | – | -0.0564 | -0.109
Cc1c2c(nn1C)CSCc1cc(n(C)n1)CSc1cc(c3ccccc3c1)OCCCc1c(C(=O)O)n(C)c3c-2c(Cl)ccc13 [AZD5991] + Nc1ccn([C@@H]2O[C@H](CO)[C@@H](O)C2(F)F)c(=O)n1 [Gemcitabine] (first compound max 1 µM, 7x7, partner max 0.3 µM) | – | – | -0.0219 | 0.007
C[C@@H](Oc1cc(-c2cnn(C3CCNCC3)c2)cnc1N)c1c(Cl)ccc(F)c1Cl [Crizotinib] + CC1=C(C(=CC=C1)Cl)NC(=O)C2=CN=C(S2)NC3=CC(=NC(=N3)C)N4CCN(CC4)CCO [Dasatinib] (first compound max 10 µM, 7x7, partner max 2 µM) | – | – | -0.0656 | -0.0593
O=C(c1cc(Cc2n[nH]c(=O)c3ccccc23)ccc1F)N1CCN(C(=O)C2CC2)CC1 [Olaparib] + Cc1c2c(nn1C)CSCc1cc(n(C)n1)CSc1cc(c3ccccc3c1)OCCCc1c(C(=O)O)n(C)c3c-2c(Cl)ccc13 [AZD5991] (first compound max 10 µM, 7x7, partner max 1 µM) | – | – | -0.0089 | -0.032

From the supplement of paper PMC11061612
